From patent publication US8637510B2, “Morpholinothiazoles as alpha 7 positive allosteric modulators” (Janssen Pharmaceutica NV, priority 2009, dated 2014)

Legend:
human alpha 7-wt nAChR = biological target: T1, human alpha 7-wt nAChR (Homo sapiens, UniProt P36544); test: Ca2+ flux imaging (FDSS) (Protocol B); assay type: cell-based; conditions: for Emax: efficacy of 100 μM choline defined as 100% in the absence of a PAM, read-out: a7-PAM-G_[33]_Eff_Curve_FI % Efficacy; for EC50: potentiation of 100 μM choline, compounds 0.01 μM to 30 μM, read-out: a7-PAM-G_[33]_pEC50 pEC50 (converted)
T1 construct: expressed in transfected cells
T1 sequence (P36544 23-502): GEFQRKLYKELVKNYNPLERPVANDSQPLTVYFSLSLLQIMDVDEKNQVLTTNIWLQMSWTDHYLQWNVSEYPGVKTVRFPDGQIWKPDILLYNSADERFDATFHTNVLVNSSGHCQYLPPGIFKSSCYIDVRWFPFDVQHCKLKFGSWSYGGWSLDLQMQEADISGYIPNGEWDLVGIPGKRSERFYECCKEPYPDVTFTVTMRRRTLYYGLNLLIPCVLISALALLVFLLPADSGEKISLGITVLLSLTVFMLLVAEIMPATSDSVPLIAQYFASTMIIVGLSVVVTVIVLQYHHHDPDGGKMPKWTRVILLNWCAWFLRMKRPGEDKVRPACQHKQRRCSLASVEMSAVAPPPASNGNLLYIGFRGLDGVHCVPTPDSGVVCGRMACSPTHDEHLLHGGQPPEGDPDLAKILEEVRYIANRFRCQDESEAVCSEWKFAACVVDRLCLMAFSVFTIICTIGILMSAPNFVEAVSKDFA
How it was run: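 Fluo-4AM-loaded cells expressing human α7-wt nAChR, in HBSS with 10 mM HEPES, 5 mM CaCl2, 0.1% BSA, received compound (0.01–30 μM), typically 10 min before 100 μM choline, with calcium flux read in real time. Potentiation is relative to choline alone (100%); EC50 from sigmoidal curves.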

[1] = biological target: T2, human alpha 7-wt nAChR-expressing GH4C1 cells (Homo sapiens, UniProt P36544); test: Patch-clamp current recording (whole-cell voltage-clamp, PAM type classification); assay type: cell-based; parameters: key: Type 0 compounds minimally change the effect size of the current elicited by 1 mM choline.; Type 1 compounds enhance the effect size of the current elicited by 1 mM choline but minimally alter the kinetics of the receptor.; Type 2 compounds enhance the effect size of the current elicited by 1 mM choline while reducing the rate and/or the extent of desensitization.; Type 3 compounds enhance the effect size of the current elicited by 1 mM choline. When tested at higher concentrations up to 10 μM they completely inhibit desensitization; Type 4 compounds allow for an initial desensitization of the receptor followed by a re-opening of the receptor during agonist application; conditions: 1 mM choline
T2 construct: expressed in transfected cells
T2 sequence (P36544 23-502): as above
How it was run: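 Whole-cell voltage clamp of GH4C1 cells stably expressing human wild-type α7 nAChR, with compound co-applied with 1 mM choline via rapid (<100 ms) solution switching; external pH 7.3, CsCl-based internal solution, 1.5-3 MΩ electrodes. PAM type (0-4) assigned from current kinetics when peak potentiation reached ≥200% of control choline response.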

Emax (human alpha 7-wt nAChR) [%] | EC50 (human alpha 7-wt nAChR) [nM] | melting point [°C] | Compound | PAM_Type PAM type [1]
796 | 186 | 174 | Cc1cc(-c2sc(N3C[C@@H](C)O[C@@H](C)C3)nc2CNC(=O)CC2CC2)cc(C)n1 [Compound 1, N-[[2-[(2R,6S)-2,6-dimethyl-4-morpholinyl]-5-(2,6-dimethyl-4-pyridinyl)-4-thiazolyl]methyl]-cyclopropaneacetamide] | 2
815 | 380 | 141 | Cc1cc(-c2sc(N3C[C@@H](C)O[C@@H](C)C3)nc2CNC(=O)c2conc2C)cc(C)n1 [Compound 18, N-[[2-[(2R,6S)-2,6-dimethyl-4-morpholinyl]-5-(2,6-dimethyl-4-pyridinyl)-4-thiazolyl]methyl]-3-methyl-4-isoxazolecarboxamide] | 2
